One series is described as follows: physchem. To be noted: buffer, pH 7.4.
A short description of series [1]: in vitro. To be noted: dog, MDCK.
Series [2] can be described thus: in vitro. To be noted: human, liver microsomes.
The nature of series [3]: in vitro. To be noted: human, hepatocytes.

Usually logD stands for lipophilicity at a set pH, counting ionised and neutral species. With `C[C@H]1[C@H](O)CN1c1nc(N2C[C@@H]3[C@@H](CO)[C@@H]3C2)cc(C(F)(F)F)c1C#N`, in the series “physchem”, the logD worked out at 3.3.

The Papp is a coefficient for how fast a substance crosses the barrier. A high value points to ready permeation. For orientation: microsomal CLint means the rate of metabolic loss divided by the concentration. A lower microsomal CLint goes with slow turnover. As to `C[C@]1(O)CCN(c2nc(N3C[C@H](O)[C@@H](O)C3)cc(C(F)(F)F)c2C#N)C1`, the Papp in the series “in vitro [1]” is 3.5 ×10⁻⁶ cm/s. The compound further returned a logD in “physchem” of 2.2. In addition, in “in vitro [2]”, the microsomal CLint was < 13 µL/min/mg.

A word on the hepatocyte CLint: it is the rate of metabolic loss divided by the concentration. Lower therefore signals slow turnover. `C[C@H]1[C@H](O)CN1c1nc(N2C[C@@H]3[C@@H](CC(=O)O)[C@@H]3C2)cc(C(F)(F)F)n1`: the Papp in the series “in vitro [1]” amounted to 1.4 ×10⁻⁶ cm/s. This compound also came in with a logD in “physchem” of 0.1. For the same compound, the intrinsic clearance (hepatocyte CLint) in the series “in vitro [3]” is < 2 µL/min/1e6 cells.

The compound `C[C@H]1[C@H](O)CN1c1nc(N2C[C@@H]3[C@H](C2)[C@H]3C(=O)O)cc(C(F)(F)F)c1C#N` displayed a logD in the series “physchem” of 0.6.

Consider `C[C@H]1[C@H](O)CN1c1nc(N2C[C@@H]3[C@@H](CC(=O)O)[C@@H]3C2)cc(C(F)(F)F)c1C#N`, for which the Papp in the series “in vitro [1]” turned out to be 5.6 ×10⁻⁶ cm/s. The compound also gave a logD in the series “physchem” of 1. This compound also returned a hepatocyte CLint in “in vitro [3]” of 26 µL/min/1e6 cells. Further, the microsomal CLint in “in vitro [2]” is < 11 µL/min/mg.

For the origin of these results see ChEMBL document CHEMBL4673244 (J Med Chem, 2020).
